Target: T1, SIRT1 (Homo sapiens, UniProt Q96EB6)
T1 sequence (Q96EB6 1-747): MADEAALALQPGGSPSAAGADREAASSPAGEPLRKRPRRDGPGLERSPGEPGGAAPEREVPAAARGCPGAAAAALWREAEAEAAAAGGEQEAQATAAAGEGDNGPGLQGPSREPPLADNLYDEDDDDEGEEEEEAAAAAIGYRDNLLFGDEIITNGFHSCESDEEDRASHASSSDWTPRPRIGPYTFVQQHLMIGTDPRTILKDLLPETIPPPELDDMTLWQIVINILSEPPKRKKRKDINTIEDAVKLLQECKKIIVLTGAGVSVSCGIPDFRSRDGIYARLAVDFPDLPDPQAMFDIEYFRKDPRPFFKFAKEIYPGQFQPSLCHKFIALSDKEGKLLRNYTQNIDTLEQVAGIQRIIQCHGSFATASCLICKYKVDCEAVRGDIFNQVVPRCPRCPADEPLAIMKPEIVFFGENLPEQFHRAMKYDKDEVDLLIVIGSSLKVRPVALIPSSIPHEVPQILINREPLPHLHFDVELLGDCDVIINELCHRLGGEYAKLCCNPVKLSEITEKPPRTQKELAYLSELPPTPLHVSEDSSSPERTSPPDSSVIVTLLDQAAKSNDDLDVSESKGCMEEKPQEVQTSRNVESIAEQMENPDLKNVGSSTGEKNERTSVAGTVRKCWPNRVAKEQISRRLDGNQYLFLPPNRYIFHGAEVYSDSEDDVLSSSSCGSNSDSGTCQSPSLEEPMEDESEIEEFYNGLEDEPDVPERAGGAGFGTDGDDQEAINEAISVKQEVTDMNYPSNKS
Test: Mass spectrometry based SIRT1 deacetylation assay (activation)
Assay type: biochemical
Conditions: 10 nM SIRT1, 0.5 μM peptide substrate, 120 μM βNAD+, 25 min at 25° C.
From the text: A mass spectrometry based assay was used to identify modulators of SIRT1 activity. The mass spectrometry based assay utilizes a peptide having 20 amino acid residues as follows: Ac-EE-K (biotin)-GQSTSSHSK (Ac)N1eSTEG-K(5TMR)-EE-NH2 (SEQ ID NO: 1) wherein K(Ac) is an acetylated lysine residue and Nle is a norleucine. The peptide is labeled with the fluorophore 5TMR (excitation 540 nm/emission 580 nm) at the C-terminus. The sequence of the peptide substrate is based on p53 with several modifications. In addition, the methionine residue naturally present in the sequence was replaced with the norleucine because the methionine may be susceptible to oxidation during synthesis and purification.
The mass spectrometry assay is conducted as follows: 0.5 μM peptide substrate and 120 μM βNAD^+ is incubated with 10 nM SIRT1 for 25 minutes at 25° C. in a reaction buffer (50 mM Tris-acetate pH 8, 137 mM NaCl, 2.7 mM KCl, 1 mM MgCl2, 5 mM DTT, 0.05% BSA). Test compounds may be added to the reaction as described above. The SirT1 gene is cloned into a T7-promoter containing vector and transformed into BL21(DE3). After the 25 minute incubation with SIRT1, 10 μL of 10% formic acid is added to stop the reaction. Reactions are sealed and frozen for later mass spec analysis. Determination of the mass of the substrate peptide allows for precise determination of the degree of acetylation (i.e. starting material) as compared to deacetylated peptide (product).
A control for inhibition of sirtuin activity is conducted by adding 1 μL of 500 mM nicotinamide as a negative control at the start of the reaction (e.g., permits determination of maximum sirtuin inhibition). A control for activation of sirtuin activity is conducted using 10 nM of sirtuin protein, with 1 μL of DMSO in place of compound, to determine the amount of deacetylation of the substrate at a given timepoint within the linear range of the assay. This timepoint is the same as that used for test compounds and, within the linear range, the endpoint represents a change in velocity.
For the above assay, SIRT1 protein was expressed and purified as follows. The SirT1 gene was cloned into a T7-promoter containing vector and transformed into BL21(DE3). The protein was expressed by induction with 1 mM IPTG as an N-terminal His-tag fusion protein at 18° C. overnight and harvested at 30,000×g. Cells were lysed with lysozyme in lysis buffer (50 mM Tris-HCl, 2 mM Tris[2-carboxyethyl]phosphine (TCEP), 10 μM ZnCl2, 200 mM NaCl) and further treated with sonication for 10 min for complete lysis. The protein was purified over a Ni-NTA column (Amersham) and fractions containing pure protein were pooled, concentrated and run over a sizing column (Sephadex S200 26/60 global). The peak containing soluble protein was collected and run on an Ion-exchange column (MonoQ). Gradient elution (200 mM-500 mM NaCl) yielded pure protein. This protein was concentrated and dialyzed against dialysis buffer (20 mM Tris-HCl, 2 mM TCEP) overnight. The protein was aliquoted and frozen at −80° C. until further use.
Sirtuin modulating compounds that activated SIRT1 were identified using the assay described above and are shown below in Table 1. The EC1.5 values represent the concentration of test compounds that result in 150% activation of SIRT1. The EC1.5 values for the activating compounds are represented by A (EC1.5<1.0 uM), B (EC1.5 1-25 uM), C (EC1.5>25 uM). The percent maximum fold activation is represented by A (Fold activation >200%) or B (Fold Activation <200%). “NT” indicates the compound was not tested in a particular assay.

| SMILES | % Fold Act. (percent maximum fold activation) | EC1.5 (concentration of test compound that results in 150% activation of SIRT1) |
| --- | --- | --- |
| O=C(Nc1cccc2ccc(-c3ccccc3)nc12)C1CCNCC1 [Compound 43] |  | C (EC1.5>25 uM) |
| O=C(Nc1cccc2ccc(-c3ccc(F)nc3)nc12)c1cscn1 [Compound 176] | A (Fold activation >200%) | A (EC1.5<1.0 uM) |
| c1cncc(CNc2cccc3ccc(-c4cccnc4)nc23)c1 [Compound 145] |  | C (EC1.5>25 uM) |
| O=C(Nc1cnccn1)c1cccc2ccc(-c3cccc(OC(F)(F)F)c3)nc12 [Compound 17] | A (Fold activation >200%) | A (EC1.5<1.0 uM) |
| CCOC(=O)c1csc(NC(=O)c2cccc3ccc(-c4cccc(C(F)(F)F)c4)nc23)n1 [Compound 91] | A (Fold activation >200%) | A (EC1.5<1.0 uM) |
| O=C(Nc1cccc2ccc(-c3cccc(OC(F)(F)F)c3)nc12)c1cscn1 [Compound 7] | A (Fold activation >200%) | B (EC1.5 1-25 uM) |
| O=C(Nc1ccccn1)c1cccc2ncc(-c3cccc(OC(F)(F)F)c3)nc12 [Compound 127] |  | C (EC1.5>25 uM) |
| O=C(Nc1cccc(Cl)n1)c1cccc2ccc(-c3cccc(C(F)(F)F)c3)nc12 [Compound 89] |  | C (EC1.5>25 uM) |
| O=S(=O)(Nc1nccs1)Nc1cccc2ccc(-c3cccc(OC(F)(F)F)c3)nc12 [Compound 113] |  | C (EC1.5>25 uM) |
| Cc1cc(-c2ccc3cccc(C(=O)Nc4cccnc4)c3n2)no1 [Compound 68] |  | C (EC1.5>25 uM) |
| O=C(Nc1ccnc(Cl)c1)c1cccc2ccc(-c3cccc(C(F)(F)F)c3)nc12 [Compound 60] | A (Fold activation >200%) | A (EC1.5<1.0 uM) |
| O=C(Nc1cccc2ccc(-c3cc(F)cc(F)c3)nc12)c1cscn1 [Compound 78] |  | C (EC1.5>25 uM) |
| O=C(Nc1ccncn1)c1cccc2ncc(-c3cccc(OC(F)(F)F)c3)nc12 [Compound 128] |  | C (EC1.5>25 uM) |
| O=C(Nc1nccs1)Nc1cccc2ccc(-c3cccc(OC(F)(F)F)c3)nc12 [Compound 45] | B (Fold Activation <200%) | A (EC1.5<1.0 uM) |
| CN(C)Cc1cccc(-c2ccc3cccc(NC(=O)c4cscn4)c3n2)c1 [Compound 122] | A (Fold activation >200%) | A (EC1.5<1.0 uM) |
| Cc1cccc(-c2ccc3cccc(NC(=O)c4cscn4)c3n2)c1 [Compound 79] | B (Fold Activation <200%) | A (EC1.5<1.0 uM) |

Continued, values first:

| % Fold Act. (percent maximum fold activation) | EC1.5 (concentration of test compound that results in 150% activation of SIRT1) | SMILES |
| --- | --- | --- |
| B (Fold Activation <200%) | A (EC1.5<1.0 uM) | Cc1cnc(NC(=O)c2cccc3ccc(-c4cccnc4)nc23)s1 [Compound 241] |
|  | C (EC1.5>25 uM) | Cc1nnc(NC(=O)c2cccc3ccc(-c4cccnc4)nc23)o1 [Compound 264] |
|  | C (EC1.5>25 uM) | O=C(Nc1ccccn1)c1cccc2cnc(-c3cccnc3)nc12 [Compound 298] |
|  | C (EC1.5>25 uM) | O=C(Nc1ncnc2ccc(-c3cccc(C(F)(F)F)c3)nc12)c1cccc(C(F)(F)F)c1 [Compound 258] |
| B (Fold Activation <200%) | A (EC1.5<1.0 uM) | O=C(Nc1cccnc1)c1cccc2cnc(-c3cccc(N4CCOCC4)c3)nc12 [Compound 314] |
| A (Fold activation >200%) | A (EC1.5<1.0 uM) | CN1CCN(Cc2cccc(C(=O)Nc3cccc4ccc(-c5cccc(C(F)(F)F)c5)nc34)c2)CC1 [Compound 216] |
|  | C (EC1.5>25 uM) | O=C(Nc1nncs1)c1cccc2ccc(-c3cccnc3)nc12 [Compound 234] |
| A (Fold activation >200%) | A (EC1.5<1.0 uM) | O=C(Nc1cccc(OC2CCNCC2)c1)c1cccc2ccc(-c3cccc(C(F)(F)F)c3)nc12 [Compound 256] |
| A (Fold activation >200%) | B (EC1.5 1-25 uM) | O=C(Nc1ncnc2ccc(-c3cccc(OC(F)(F)F)c3)nc12)c1ccc(CN2CCCC2)cc1 [Compound 232] |
| A (Fold activation >200%) | A (EC1.5<1.0 uM) | O=C(Nc1cccc(CN2CCOCC2)n1)c1cccc2ccc(-c3cccnc3)nc12 [Compound 231] |
| A (Fold activation >200%) | B (EC1.5 1-25 uM) | O=C(Nc1ncnc2ccc(-c3cccc(C(F)(F)F)c3)nc12)c1ccc(CN2CCCC2)cc1 [Compound 312] |
| A (Fold activation >200%) | B (EC1.5 1-25 uM) | O=C(Nc1ncc(CN2CCCC2)s1)c1cccc2ccc(-c3cccnc3)nc12 [Compound 218] |
| B (Fold Activation <200%) | B (EC1.5 1-25 uM) | O=C(Nc1nc2ccccc2s1)c1cccc2ccc(-c3cccnc3)nc12 [Compound 233] |
|  | C (EC1.5>25 uM) | O=C(Nc1ccncc1)c1cccc2ccc(-c3cccnc3)nc12 [Compound 237] |
| A (Fold activation >200%) | A (EC1.5<1.0 uM) | O=C(Nc1cnccn1)c1cccc2ccc(-c3cccc(N4CCOCC4)c3)nc12 [Compound 279] |
|  | C (EC1.5>25 uM) | O=C(Nc1cccnc1)c1cccc2cnc(-c3cccnc3)nc12 [Compound 297] |
| A (Fold activation >200%) | A (EC1.5<1.0 uM) | O=C(Nc1nccs1)c1cccc2ccc(-c3ccnc(N4CCC4)c3)nc12 [Compound 179] |

Reference: US8685970B2, “Quinolines and related analogs as sirtuin modulators” (GlaxoSmithKline, LLC, priority 2008, dated 2014)
